Data on one compound can be found in patent publication US10040788B2, “1,3,4-thiadiazole compounds and their use in treating cancer” (AstraZeneca AB, priority 2014, dated 2018).

One test concerns NCI-H1703 xenograft. Put plainly: Mouse Xenograft Model, combination therapy (NCI-H1703). The settings on record: Male Scid mice, NCI-H1703 s.c. The class given is in vivo. The procedure:
Male Scid mice were transplanted s.c. with human NSCLC NCI-H1703 cells (ATCC-CRL-5889) to determine the in-vivo anti-tumour activity of GLS inhibitors. 1×10^7 cells in 50% matrigel (BD Bioscience) were injected s.c. on the left flank of the animals.
(§1) Animals were randomised into groups of 10-12 when tumours reached a volume of ˜200-300 mm^3 and treatment commenced. […] Tumours were measured twice weekly by calliper and volume of tumours calculated using elliptical formula (π/6×width×width×length). Statistical significance was evaluated using a one tailed, t-test. Taxotere® (Sanofi) was formulated in a physiological saline. Example 2 was formulated in a 1% Polysorbate 80 and pH adjusted with 1M HCL to a final pH concentration of pH3.5. Data is presented as mean tumour volume with calculated mean standard error bars.

For another test, the system named is NCI-H3122 xenograft. Put plainly: Mouse Xenograft Model, monotherapy (NCI-H3122). The class given is in vivo. Particulars: Female Harlan Nude mice, NCI-H3122 s.c., 50 mg/kg once daily peroral for 17 days. How it is done: as §1, with “Female Harlan Nude mice were transplanted s.c. with human NSCLC NCI-H3122 cells to determine the in-vivo anti-tumour activity of GLS inhibitors. 5×10^6 cells in 50% matrigel (BD Bioscience) were injected s.c. on the left flank of the animals. Animals” for “Animals”, “10-15” for “10-12”, “t-test.” for “t-test. Taxotere® (Sanofi) was formulated in a physiological saline.”

For another test, the system named is NCI-H1703 cells. The test can be described thus: GLS Cell Proliferation Assay (NCI-H1703). It counts as cell-based, human. Particulars: Homo sapiens, 120 h; NCI-H1703 cells, 5 days incubation; geometric mean where repeated; read-out: Assay c) GLS Cell Proliferation Assay.

Turning to `CO[C@H](C(=O)Nc1nnc(N[C@@H]2CCN(c3cccnn3)C2)s1)c1ccccc1` [Example 2(a), (2S)-2-Methoxy-2-phenyl-N-[5-[[(3R)-1-pyridazin-3-ylpyrrolidin-3-yl]amino]-1,3,4-thiadiazol-2-yl]acetamide], the “Tumour growth (mean tumour volume), FIG. 3” value in the test on NCI-H1703 xenograft (100 mg/kg once daily peroral for 16 days in combination with once weekly i.v. Taxotere, compared to Taxotere monotherapy) was “slight regression”; in the test with NCI-H1703 xenograft (100 mg/kg once daily peroral for 16 days, monotherapy), “inhibition of growth in-vivo”. Besides, the “Tumour growth (mean tumour volume), FIG. 2” value in the test with NCI-H3122 xenograft is “inhibition of growth in-vivo”. In addition, in the test with NCI-H1703 cells, the IC50 came out at 4.85 nM.
